Assay results from patent publication US20190117675A1, “Compositions And Methods To Treat And/Or Prevent Vision Disorders Of The Lens Of The Eye” (Helix Holding Company, priority 2014, published 2019).

What was measured:
[1] = test system: dog eyes with cataracts; assay: Treatment of cataract lenses in dogs; format: in vivo; conditions: dog eyes treated with lanosterol for 6 weeks (intravitreal nanoparticles plus eye drops three times daily)
Description: Grading System of Dog Cataract • Grade 0: absence of opacification (no cataract); • Grade 1: a slight degree of opacification (incipient stage); • Grade 2: presence of diffuse opacification involving almost the entire lens (immature stage); • Grade 3: presence of extensive thick opacification involving the entire lens (mature stage)
To assess the effect of lanosterol treatment on cataract in live animals, left eye of dogs with bilateral cataract were treated for topical eye drops. The right eye of each animal was administered one drop of vehicle, 3 times a day so that the drop coated the eye. One drop of lanosterol was administered to the left eye of each animal in the same manner. Both eyes of some control animals were treated for vehicle. […] Each lens was recorded by photography. Degree of cataract was assessed using AREDS cataract grading system.
This study was approved by TACUC of Zhongshan Ophthalmic Center and West China Hospital. […] Degree of cataract was assessed by a blinded examiner and scored based on canine cataract stage, shown below. Improvements in lens clarity and transparency were quantified. […]
The mixture solution was then stirred for 2 h to allow the nanoparticles to form and the acetonitrile to evaporate. […] The loading yield of lanosterol was quantified by high performance liquid chromatography.

[2] = target: T1, αB-crystallin R120G mutant (Homo sapiens, UniProt P02511, R120G); assay: Negative-stain EM of aggregates treated with sterol in liposome; format: biochemical; conditions: negatively stained EM
T1 construct: made in house
T1 sequence (P02511 1-175 R120G): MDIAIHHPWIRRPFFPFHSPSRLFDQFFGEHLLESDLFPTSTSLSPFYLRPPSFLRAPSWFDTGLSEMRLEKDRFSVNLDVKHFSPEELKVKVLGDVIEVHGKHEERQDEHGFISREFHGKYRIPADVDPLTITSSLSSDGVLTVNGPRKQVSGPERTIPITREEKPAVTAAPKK
Description: Representative negatively stained EM pictures of the aggregates of αB-crystallin R120G mutant treated by liposome, lanosterol in liposome and cholesterol in liposome, respectively. The EM samples were stained by 1.25% uranyl acetate.
Quantitative analysis was performed by calculating the number of particles with length over 50 nm from six randomly picked viewing field. Each viewing field contained 30-50 particles.
The aggregates of the WT and mutated αA- and αB-crystallin proteins were obtained by heating the proteins solutions containing 1 M guanidine chloride (ultrapure, Sigma) with a concentration of 5 mg/ml at 60° C. for 48 h. The aggregates of the WT and mutated β- and γ-crystallins were prepared by heating the protein solutions at pH 3 and 37° C. for 48 h. The formation of aggregates was confirmed by turbidity (absorbance at 400 nm) and transmission electron microscope (EM) measurements. The preformed aggregates were resuspended in 20 mM PBS with a final concentration of 0.1 mg/ml (approximately 5 μM). The resuspended aggregates were treated by 50 μM lanosterol or cholesterol in liposomes formed by 50 μM DPPS at 37° C. […] The soluble proteins were determined by centrifuge the protein solutions to separate the supernatant and precipitation fractions. Then the protein concentration in the supernatant was determined by the Bradford method. […]

CC(C)=CCC[C@@H](C)[C@H]1CC[C@@]2(C)C3=C(CC[C@]12C)[C@@]1(C)CC[C@H](O)C(C)(C)[C@@H]1CC3 [Lanosterol]
cataract severity and lens clarity [1]: reduced cataract severity and increased lens clarity | dissociation of aggregates formed by αB-crystallin R120G mutant (number of particles with length over 50 nm) [2]: dissociates the aggregates
